The structures appear in SMILES notation. Peptide text beside a SMILES is read from it. * marks the point of attachment. Cbz = O=C(OCc1ccccc1)*; CH2F = FC*

The source of these data is patent publication US20140309295A1, “ANTIEPILEPTIC, HYPOCHOLESTEROLEMIC AND NEUROPROTECTIVE COMPOUND” (NEURON BIOPHARMA, S.A., priority 2009, published 2014).

The test system of one data set is caspase 3/7. Description: Inhibition of camptothecin-induced activation of caspase 3/7 in SK-N-MC cells. The settings on record: 50 μM Z-VAD-fmk; 50 μM CPT. It is filed as cell-based, human. How it is done: The assay was performed on human neuroblastoma SK-N-MC cells in culture from the American Type Culture Collection (ATCC), in all cases strict rules of sterility were followed and the manipulation was performed in class II biological safety cabinets following European standard EN 12469. The cells were maintained in the following culture medium: Minimum Essential Medium Eagle (MEM) supplemented with 1 mM sodium pyruvate, 2 mM L-glutamine, 0.1 mM non-essential amino acids, 0.05 mg/ml gentamicin and 10% fetal bovine serum. The induction of apoptosis on the cells in culture was performed by means of incubation with camptothecin (CPT), which triggers cell apoptosis activation. The apoptosis was determined by means of the measurement of the activation of effector caspases, caspase 3 or caspase 7, for which a kit for the fluorometric detection of active caspase 3/7 (Apo-ONE® Homogeneous Caspase-3/7, Promega) was used. The active caspase 3 or 7 of the cells cause the rupture of a substrate, which leads to fluorescence emission, which is read by means of a fluorometer. The effect of the pretreatment of compound NST0037 at 10 and 40 μM on the activation of caspase 3/7 caused by 50 μM of camptothecin (CPT) in the SK-N-MC cells was thus analyzed. These cells, not exceeding 15 passages, were seeded on 96-well plates treated for adherent cells with a cell concentration of 5×10^4 cells/well, 3 wells of the plate were seeded for each condition of the assay. After 24 hours of cell incubation at 37° C. and 5% CO2, the pretreatment with NST0037 at 10 and 40 μM was performed. […] On the following day, fluorescence was measured (499/521 nm, […]).

Data set [1] deals with human neuroblastoma SK-N-MC cells. Description: Inhibition of camptothecin-induced apoptosis by flow cytometry (sub-G1). It is filed as cell-based. As to conditions: 50 μM Z-VAD-fmk; 50 μM camptothecin. As for the experimental part:
The assay was performed on human neuroblastoma SK-N-MC cells in culture from the American Type Culture Collection (ATCC), in all cases strict rules of sterility were followed and the manipulation was performed in class II biological safety cabinets following European standard EN 12469. The cells were maintained in the following culture medium: Minimum Essential Medium Eagle (MEM) supplemented with 1 mM sodium pyruvate, 2 mM L-glutamine, 0.1 mM non-essential amino acids, 0.05 mg/ml gentamicin and 10% fetal bovine serum.
The inhibition caused by compound NST0037 against apoptosis (programmed cell death) caused by treatment with camptothecin which inhibits the enzyme Topoisomerase I, which prevents DNA duplication and triggers apoptotic cell death, was analyzed. These cells, not exceeding 15 passages, were seeded on 6-well plates treated for adherent cells with a cell concentration of 8×10^5 cells/well and 7×10^5 cells/well for the assay with pretreatment; 2 wells of the plate were seeded for each condition of the assay.
After 24 hours of cell incubation at 37° C. and 5% CO2, the cell treatments were performed with 2 ml of total volume for the following conditions: • Control: culture medium (medium) • Camptothecin: medium plus camptothecin 50 μM. • Camptothecin plus Z-VAD-fmk: medium plus 50 μM camptothecin plus 50 μM Z-VAD-fmk, as positive inhibition control. • Camptothecin plus NST0037: medium plus 50 μM camptothecin plus NST0037 at 10, 40 or 100 μM.
In the assay with pretreatment, the cells were previously treated with 40 μM of NST0037, 100 μM of mevalonate or both together for 24 hours and then they were treated with 50 μM camptothecin, the rest of the procedure was similar to the assay without pretreatment.
The cells were incubated (at 37° C. and 5% CO2) with these treatments for 6 hours, after which time they were collected along with their culture medium and centrifuged at 300×g for 5 minutes. The medium was removed, a washing was performed with PBS and the cells were fixed for 2 minutes with 500 μl of 70% ethanol at −20° C. Once fixed, they were centrifuged at 400×g for 5 minutes, washed with PBS and 0.05 mg/ml propidium iodide, diluted in cycling buffer (0.1% sodium citrate, 0.3% Nonidet P-40 and 0.02 mg/ml RNase) were added and they were incubated for 1 hour at 37° C. After this time they were analyzed by flow cytometry, comparing the fluorescence of propidium iodide against the amount of DNA. The percentage of apoptosis was measured on the sub-G1 region of each of the conditions.

Another data set deals with zebrafish larvae. Description: Acute toxicity assay in zebrafish larvae (24 hours). It is filed as in vivo, Danio rerio. The settings on record: for Mortality (dead larvae/total): 1 day. As for the experimental part: To evaluate the biosafety of compound NST0037, its toxicological effects on the zebrafish larvae model were analyzed by means of determining the safety parameters of the OECD C15 protocol.
The fertilized eggs were obtained by natural mating of the zebrafish (Danio rerio, AB strain). A total of 8-10 pairs were used for each cross and a total of 200-250 eggs were generated on average per pair. The eggs were collected immediately after spawning and were washed with dilution water (CaCl2.2H2O2 0.29 g/L, MgSO4.7H2O2 0.12 g/L, NaHCO3 0.065 g/L, KCl 0.006 g/L), the pH being adjusted to 7.8±0.2, in accordance with EC Regulation 440/2008, method C.1, and were deposited in a Petri dish.
The embryos were developed normally until 96 hours post-fertilization in their growth medium. […] […]. Each experiment was performed in triplicate.
The studies were conducted for 24 hours of treatment, thus performing an acute toxicity assay. […].
After the time of exposure of the substances under study, the record of the mortality of the larvae was determined. […].
[…]. The percentage of healthy larvae was defined as the number of live larvae without symptoms of external physiopathological anomalies (morphological and/or behavioral), the latter being a parameter determining the biosafety of a substance under study and is complementary to the survival rates and to LD50. […].
The anomalies recorded in the study are described below: • Thrombosis in the yolk sac: it is a clot inside a blood vessel, in this case of any vessel irrigating the yolk. • Cardiac thrombosis: occurs in a cardiac vessel. • Cardiac edema (or hydrops): accumulation of fluid in the intercellular tissue space and also in the cavities of the organism. In the case of the heart, it causes the accumulation of fluid in the pericardial sac.

The test system of the next data set is adult zebrafish. Description: Lethality by constant exposure in water (4 days) in adult zebrafish (OECD 203). It is filed as in vivo. The settings on record: for histopathology: ovary / Mortality (dead animals/total): 4 days. As for the experimental part:
The object of this assay is to determine the acute lethal toxicity of a substance on freshwater fish. Acute toxicity is the distinguishable adverse effect induced in an organism as a result of the exposure to a given substance for a short time period (days).
The deaths of the animals under study during the entire time of the assay were recorded as a toxicity parameter.
To that end, the fish that survived the treatment were sacrificed at 4 days post-treatment (previously anesthetized) and the samples (whole fish) were included in paraffin. The hematoxylin-eosin staining was subsequently performed in order to conduct the histopathological studies, obtaining a minimum of 6 longitudinal sections per animal, for the purpose of collecting different study areas of the same organ. The following organs were studied: brain, kidney, pancreas, intestine, eye, gills, ovary, testicle, muscle and liver.

The test system of another data set is zebrafish embryo. Description: Biosafety in zebrafish embryo (OECD C15, semi-static, 9 days). It is filed as in vivo, Danio rerio. How it is done:
The fertilized eggs were obtained by natural mating of the zebrafish (Danio rerio, AB strain). A total of 8-10 pairs were used for each cross and a total of 200-250 eggs were generated on average per pair.
To assure exposure in the earliest stages of development, the eggs were quickly transferred (a minimum of 50 per condition) to another Petri dish with solutions of the compounds to be tested. […] Each experiment was performed in triplicate.
The studies were conducted in a total of 9 days post-fertilization, in which the treatment was renewed every day, thus conducting a semi-static assay.
The results at the end of the experiment allowed collecting the percentage of healthy larvae which reach the end of the experiment, defined as the number of live larvae and without symptoms of external physiopathological anomalies (morphological and/or behavioral), this being a parameter determining the biosafety of a substance under study and is complementary to the survival rates and to the LD50.
The anomalies recorded in the study are described below: • Intracranial thrombosis: a clot inside the blood vessel, in this case of any cerebral vessel. • Cardiac thrombosis: occurs in a cardiac vessel. • Cardiac edema (or hydrops): accumulation of fluid in the intercellular tissue space and also in the cavities of the organism. In the case of the heart, it causes the accumulation of fluid in the pericardial sac. • Malformation: a noticeable difference in the shape of the body or part of the body, or organ of the body (internal or external) compared with the average shape of the part in question.
The cardiac rhythm of the zebrafish embryos-larva was determined by means of visual analysis in stereomicroscopy, determining the heartbeat with the aid of a manual counter for a period of one minute.

With `COC(=O)C[C@H](NC(=O)[C@H](C)NC(=O)[C@@H](NC(=O)OCc1ccccc1)C(C)C)C(=O)CF` [Z-VAD-fmk, reference compound] (Cbz-Val-Ala-Asp(OMe)-CH2F), the “inhibition of activation of caspase 3/7 (inhibition control)” value with caspase 3/7 is on record as “completely inhibited the activation of caspase 3/7”. Moreover, in data set [1], the “inhibition of apoptosis caused by camptothecin (positive inhibition control)” value was “specifically inhibited the apoptosis caused by camptothecin”.

Turning to `CCC(C)(C)C(=O)O[C@H]1C[C@@H](C)C=C2C=C[C@H](C)[C@H](CC[C@@H]3C[C@@H](O)CC(=O)O3)[C@H]21` [simvastatin, reference compound], the “percentage of larvae with toxicological symptomatology (anomalous appearance)” value in the data set on zebrafish larvae (24 hours exposure) is recorded as “induced a larger percentage of larvae with toxicological symptomatology than compound NST0037”. The “Mortality (dead larvae/total)” value in the data set with zebrafish larvae (Dose 10 mg/Kg), in the data set with zebrafish larvae (Dose 30 mg/Kg), in the data set on zebrafish larvae (Dose 100 mg/Kg), in the data set on zebrafish larvae (Dose 300 mg/Kg) and in the data set on zebrafish larvae (Dose 1000 mg/Kg) was 0/30 each time. Besides, in the data set on zebrafish larvae (highest study dose (1000 mg/Kg), 24 hours), the “percentage of healthy larvae” value is listed as 53.3±8.8%. For the same molecule, the “histopathology: ovary” value is listed as “also presented histopathological damage in the ovary” with adult zebrafish (30 mg/kg) and “presented ovarian damage” in the data set on adult zebrafish (100 mg/Kg). In addition, the “Mortality (dead animals/total)” value in the data set on adult zebrafish (Dose 1 mg/kg) is on record as 0/7; with adult zebrafish (Dose 3.2 mg/kg), 0/7; with adult zebrafish (Dose 10 mg/kg), 0/7; with adult zebrafish (Dose 32 mg/kg), 0/7; in the data set with adult zebrafish (Dose 100 mg/kg), 6/7. In addition, the percentage of mortality in the data set on adult zebrafish (day 4 post-treatment (100 mg/kg group)) is 86%. The “percentage of larvae with malformations or anomalous appearance” value in the data set with zebrafish embryo (0.2 mg/L) was “significant percentage of anomalies or toxicological problems”. Besides, in the data set on zebrafish embryo (high dose (2 mg/L, FIG. 24)), the “survival rate of embryos-larvae” value is “more toxic, since the reduction of the survival rate started earlier in time”. The “reduction of the cardiac rhythm vs controls” value with zebrafish embryo (increasing doses up to 2 mg/L, 72 hours post-treatment) is on record as “statistically significant reduction with respect to the controls after the dose of 0.06”. For the same molecule, the “survival rate of embryos-larvae vs controls” value in the data set with zebrafish embryo (lower dose (FIG. 25: NST0037 0.2 mg/L)) is “caused a significant reduction of the survival rate”.
